Results on one substance are retold here after US8871741B2, “Inhibition of TNF-α induced activation of NFKB by pentosan polysulfate” (Icahn School of Medicine at Mount Sinai, priority 2010, dated 2014).

For one assay, the system named is MMP-2 and MMP-9. Description: Zymography of supernatants of human peripheral blood-derived macrophages. The conditions noted are these: TNF-α stimulated human peripheral blood-derived macrophages, 100 μg/ml PPS. It counts as cell-based. Here is the method: Human peripheral blood monocytes were isolated as previously described (Valone F H, Epstein L B. J Immunol. 1988; 141: 3945-3950), and maintained in medium 199 supplemented with 2% human serum for in vitro differentiation into macrophages (Camussi G, et al., J Exp Med. 1987; 166: 1390-1404).
MMP activity in aortic extracts and conditioned media from monocytes was assessed, as previously described (Jacot T A, et al., Lab Invest. 1996; 75:791-79). Briefly, aortic segments were homogenized and extracted in RIPA buffer (25 mM Tris, pH 7.4, 150 mM KCl, 5 mM EDTA, 1% Nonidet P-40, 0.5% sodium deoxycholate, and 0.1% SDS). Insoluble material was precipitated by centrifugation, and soluble extracts were collected and stored at −20° C. for further analysis. For in vitro experiments, cell supernatants were centrifuged to remove cellular debris, and diluted appropriately to normalize for cell number. Aortic extracts and conditioned media were then mixed with sample buffer (1% SDS, 0.08 M Tris pH 6.8, 4% glycerol, and 0.006% bromophenol blue), and loaded onto a 10% gelatin polyacrylamide gel, and processed as described (Jacot T A, et al., Lab Invest. 1996; 75:791-79). For reverse zymography, samples were loaded onto a 15% gelatin polyacrylamide gel containing 0.5% porcine gelatin and 6 μg recombinant gelatinase A, and processed as described (Elliot S J, et al., J Am Soc Nephrol. 1999; 10: 62-68).

For assay [1], the system named is NF-κB. Description: NF-κB luciferase reporter assay in proximal tubular cells. It counts as cell-based, mouse. The following applies: PPS 50-200 μg/ml, TNFα 10 ng/ml. Here is the method: To further determine the effect of PPS on NF-κB transcription activity, proximal tubular cells were transfected with a NF-κB reporter in the presence or absence of PPS (50-200 μg/ml) and TNFα (10 ng/ml). Some cells were also transfected with a cDNA expression vector containing constitutively active IκB, dominant negative IKK, or IKK. A β-galactosidase cDNA expression vector was co-transfected with the NF-κB reporter to serve as an internal control for transfection efficiency. Luciferase and β-galactosidase activity were measured using substrate assays. The same amount of DNA (1 μg/well of 24 well plates) was used for each transfection throughout the experiments.

The test system of assay [2] is NF-κB. Description: NF-κB DNA binding, gel mobility shift assay (EMSA). It counts as cell-based, mouse. The conditions noted are these: proximal tubular cells, PPS 800 μg/ml for ½ hour before TNFα 10 ng/ml, nuclear protein after 1 hour. Here is the method: Additionally, NF-κB DNA binding was examined by gel mobility shift assay (EMSA). Briefly, proximal tubular cells were pre-incubated with or without PPS (800 μg/ml) for ½ hour before the addition of TNFα (10 ng/ml). Nuclear protein was extracted from cells 1 hour after treatment. A NF-κB probe was prepared by annealing complementary single-stranded oligonucleotides with 5′-ACTG overhangs (MWG Biotechnologies, Inc.) and were labeled by filling in with [-^32P]dGTP and [-^32P]dCTP using Klenow enzyme. Labeled probes were purified with Nuctrap purification columns (Roche Applied Science). EMSAs were performed using 10^5 cpm of labeled probe and 10 μg of nuclear extracts/reaction. DNA binding complexes were separated by electrophoresis on a 5% polyacrylamide-Tris/glycine-EDTA gel, which was dried and exposed to X-ray film.

For pentosan polysulfate [PPS], in the assay on MMP-2 and MMP-9, the “effect on MMP production” value was “inhibitory effect”. The “TNFα stimulated NF-κB transcriptional activity” value with NF-κB [1] was “dependently decreased”. For the same substance, the “TNFα-induced increase in NF-κB DNA binding activity” value with NF-κB [2] is “nearly completely blocked”.
